# According to patent US6348309B1, “Process for inactivating viruses in blood and blood products” (priority 1989, dated 2002):
# Marks after values point to notes of the source that are not given here.
# What was measured:
# HIV-1 = assay: MB/light treatment of HIV-1 in plasma, infectivity on MT-4 cells (Example 5); assay type: cell-based
# Hog Cholera = assay type: cell-based
# SIV = assay: MB/light virus inactivation in plasma (Example 6, Table VI); assay type: cell-based; settings: illumination 15 min; * production conditions, plastic bag 250-300 ml plasma
# Herpes Simplex = assay: as above; assay type: cell-based; settings: illumination 60 min; * production conditions, plastic bag 250-300 ml plasma
# West Nile = assay: as above; assay type: cell-based; settings: illumination 60 min
# coagulation factor VIII [1] = target: T1, coagulation factor VIII (Homo sapiens, UniProt P00451); assay: Coagulation factor activity in human plasma right after MB addition (Example 9); assay type: biochemical; settings: no light
# T1 construct: Varying amounts of MB were added to human plasma (2 ml aliquots); from tissue; host or cells: human plasma
# T1 sequence (P00451 20-1332 limits assumed): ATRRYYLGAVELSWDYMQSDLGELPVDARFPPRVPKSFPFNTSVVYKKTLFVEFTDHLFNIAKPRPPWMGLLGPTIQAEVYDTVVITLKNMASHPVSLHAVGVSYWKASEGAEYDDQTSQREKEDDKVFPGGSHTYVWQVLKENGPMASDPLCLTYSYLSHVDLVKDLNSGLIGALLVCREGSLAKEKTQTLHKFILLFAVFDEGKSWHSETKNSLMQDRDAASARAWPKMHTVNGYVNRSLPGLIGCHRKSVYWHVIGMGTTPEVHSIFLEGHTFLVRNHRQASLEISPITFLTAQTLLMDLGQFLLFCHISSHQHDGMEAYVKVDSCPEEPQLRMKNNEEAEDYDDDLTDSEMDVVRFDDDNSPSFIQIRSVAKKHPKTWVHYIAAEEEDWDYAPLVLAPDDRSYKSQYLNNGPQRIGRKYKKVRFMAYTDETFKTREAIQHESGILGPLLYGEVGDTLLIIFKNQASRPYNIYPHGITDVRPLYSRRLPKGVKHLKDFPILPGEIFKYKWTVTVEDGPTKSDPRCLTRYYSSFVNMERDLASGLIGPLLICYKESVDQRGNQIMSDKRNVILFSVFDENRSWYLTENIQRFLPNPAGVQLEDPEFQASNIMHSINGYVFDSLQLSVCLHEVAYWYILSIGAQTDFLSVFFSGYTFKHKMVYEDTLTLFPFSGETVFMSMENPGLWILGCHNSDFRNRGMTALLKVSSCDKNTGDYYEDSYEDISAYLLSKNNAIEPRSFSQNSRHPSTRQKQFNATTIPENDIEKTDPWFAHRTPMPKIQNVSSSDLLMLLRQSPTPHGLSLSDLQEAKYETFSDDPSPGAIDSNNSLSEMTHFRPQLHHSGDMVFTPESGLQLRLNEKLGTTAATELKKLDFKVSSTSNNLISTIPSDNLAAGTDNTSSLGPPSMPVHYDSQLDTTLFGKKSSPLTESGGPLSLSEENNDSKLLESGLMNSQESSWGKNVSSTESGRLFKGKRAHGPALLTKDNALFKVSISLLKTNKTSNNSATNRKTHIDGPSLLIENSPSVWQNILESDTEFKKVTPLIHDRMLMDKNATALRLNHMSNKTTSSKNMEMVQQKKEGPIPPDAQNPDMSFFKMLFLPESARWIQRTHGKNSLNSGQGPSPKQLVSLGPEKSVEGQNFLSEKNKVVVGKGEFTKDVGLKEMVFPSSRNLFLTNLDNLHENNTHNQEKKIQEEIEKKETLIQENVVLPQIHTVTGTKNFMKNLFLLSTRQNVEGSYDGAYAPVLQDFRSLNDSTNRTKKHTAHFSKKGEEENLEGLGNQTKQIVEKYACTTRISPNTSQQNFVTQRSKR
# T1 sequence (P00451 1668-2351 limits assumed): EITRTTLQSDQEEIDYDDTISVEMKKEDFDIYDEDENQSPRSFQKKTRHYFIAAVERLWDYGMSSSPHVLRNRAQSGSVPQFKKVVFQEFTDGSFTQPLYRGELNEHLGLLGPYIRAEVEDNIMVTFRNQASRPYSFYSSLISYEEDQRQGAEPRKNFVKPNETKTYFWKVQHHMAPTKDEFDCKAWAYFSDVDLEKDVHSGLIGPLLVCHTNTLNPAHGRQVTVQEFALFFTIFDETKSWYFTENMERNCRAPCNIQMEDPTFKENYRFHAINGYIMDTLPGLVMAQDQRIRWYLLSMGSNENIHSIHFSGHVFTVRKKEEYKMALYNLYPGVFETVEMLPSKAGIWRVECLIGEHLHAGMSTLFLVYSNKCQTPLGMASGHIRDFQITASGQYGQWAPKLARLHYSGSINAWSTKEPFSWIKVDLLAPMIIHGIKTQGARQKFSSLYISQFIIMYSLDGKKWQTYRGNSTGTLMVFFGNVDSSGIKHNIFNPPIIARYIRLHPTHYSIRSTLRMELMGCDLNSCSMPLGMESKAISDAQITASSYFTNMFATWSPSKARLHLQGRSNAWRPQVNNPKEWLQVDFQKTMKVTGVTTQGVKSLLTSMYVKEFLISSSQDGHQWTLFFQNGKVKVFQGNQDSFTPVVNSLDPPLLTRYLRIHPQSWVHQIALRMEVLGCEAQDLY
# coagulation factor VIII [2] = target: T1, coagulation factor VIII; assay: Coagulation factor activity in human plasma with MB and light exposure (Example 10); assay type: biochemical
# coagulation factor V = target: T2, coagulation factor V (Homo sapiens, UniProt P12259); assay: Coagulation factor activity in human plasma right after MB addition (Example 9); assay type: biochemical; settings: no light
# T2 construct: Varying amounts of MB were added to human plasma (2 ml aliquots); from tissue; host or cells: human plasma
# T2 sequence (P12259 29-2224): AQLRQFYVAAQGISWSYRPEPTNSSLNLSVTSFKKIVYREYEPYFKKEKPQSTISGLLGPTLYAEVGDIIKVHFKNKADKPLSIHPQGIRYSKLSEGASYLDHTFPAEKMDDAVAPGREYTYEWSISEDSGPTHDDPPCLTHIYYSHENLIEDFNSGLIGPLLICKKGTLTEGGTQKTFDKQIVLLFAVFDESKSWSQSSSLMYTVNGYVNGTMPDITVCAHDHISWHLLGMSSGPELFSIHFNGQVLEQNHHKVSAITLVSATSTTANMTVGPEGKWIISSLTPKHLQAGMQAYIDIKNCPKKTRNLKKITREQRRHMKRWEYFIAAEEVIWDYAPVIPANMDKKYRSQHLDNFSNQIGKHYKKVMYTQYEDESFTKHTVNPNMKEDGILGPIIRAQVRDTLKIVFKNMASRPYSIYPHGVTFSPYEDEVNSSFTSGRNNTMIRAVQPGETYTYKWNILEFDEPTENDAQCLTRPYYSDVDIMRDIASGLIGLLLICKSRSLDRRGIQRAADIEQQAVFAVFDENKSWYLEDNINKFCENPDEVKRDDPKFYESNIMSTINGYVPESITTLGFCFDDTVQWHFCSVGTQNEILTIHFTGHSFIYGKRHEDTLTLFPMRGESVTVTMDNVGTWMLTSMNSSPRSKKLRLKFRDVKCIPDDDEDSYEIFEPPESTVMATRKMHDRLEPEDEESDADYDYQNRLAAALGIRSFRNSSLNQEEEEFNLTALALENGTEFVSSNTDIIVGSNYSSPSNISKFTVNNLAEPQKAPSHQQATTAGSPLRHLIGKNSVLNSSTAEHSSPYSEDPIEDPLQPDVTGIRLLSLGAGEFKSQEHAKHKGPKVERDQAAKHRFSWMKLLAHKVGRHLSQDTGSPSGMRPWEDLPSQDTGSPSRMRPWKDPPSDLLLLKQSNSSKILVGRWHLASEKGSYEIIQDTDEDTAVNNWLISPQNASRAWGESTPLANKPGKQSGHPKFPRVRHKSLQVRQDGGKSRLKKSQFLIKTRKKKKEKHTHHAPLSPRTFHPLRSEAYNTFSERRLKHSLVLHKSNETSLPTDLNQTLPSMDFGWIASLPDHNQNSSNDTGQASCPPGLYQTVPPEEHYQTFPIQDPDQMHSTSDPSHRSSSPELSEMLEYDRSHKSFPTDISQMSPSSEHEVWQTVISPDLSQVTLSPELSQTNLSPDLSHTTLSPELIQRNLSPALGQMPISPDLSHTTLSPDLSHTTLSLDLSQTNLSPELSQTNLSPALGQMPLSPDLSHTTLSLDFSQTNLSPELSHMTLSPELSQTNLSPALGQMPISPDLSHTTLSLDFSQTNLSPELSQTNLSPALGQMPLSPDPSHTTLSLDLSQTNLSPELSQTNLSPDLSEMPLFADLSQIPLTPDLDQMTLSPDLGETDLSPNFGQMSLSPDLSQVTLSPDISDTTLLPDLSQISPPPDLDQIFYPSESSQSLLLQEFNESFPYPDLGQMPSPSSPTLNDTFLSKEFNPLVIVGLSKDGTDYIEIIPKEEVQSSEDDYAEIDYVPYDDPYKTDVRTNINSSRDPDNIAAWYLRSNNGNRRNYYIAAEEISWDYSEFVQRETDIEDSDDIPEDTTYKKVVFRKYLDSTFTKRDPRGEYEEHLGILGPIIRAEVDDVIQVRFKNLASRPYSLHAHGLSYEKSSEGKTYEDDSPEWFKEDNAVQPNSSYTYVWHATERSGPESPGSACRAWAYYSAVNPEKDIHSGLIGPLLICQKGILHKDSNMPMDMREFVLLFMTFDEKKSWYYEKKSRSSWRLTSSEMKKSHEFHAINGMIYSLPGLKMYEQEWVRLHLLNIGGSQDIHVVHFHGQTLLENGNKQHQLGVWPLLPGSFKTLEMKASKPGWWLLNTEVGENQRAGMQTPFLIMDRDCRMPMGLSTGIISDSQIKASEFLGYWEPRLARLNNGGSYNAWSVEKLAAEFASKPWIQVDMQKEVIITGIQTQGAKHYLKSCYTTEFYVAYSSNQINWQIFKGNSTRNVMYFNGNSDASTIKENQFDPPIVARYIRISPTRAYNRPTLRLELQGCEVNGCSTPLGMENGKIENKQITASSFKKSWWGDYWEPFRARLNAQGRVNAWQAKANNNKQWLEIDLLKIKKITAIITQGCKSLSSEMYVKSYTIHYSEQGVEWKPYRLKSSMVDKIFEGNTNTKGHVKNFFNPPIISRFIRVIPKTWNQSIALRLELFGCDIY
# Sindbis = assay type: cell-based
smiles,measurement,setting,value
"CN(C)c1ccc2nc3ccc(=[N+](C)C)cc-3sc2c1 [MB, methylene blue]",effect of the dye alone on the virus,"HIV-1; MB 1 μM, no illumination",not detrimental to the virus
same,reduction of viral infectivity,"HIV-1; MB 1 μM, within the first 10 minutes of light exposure",approx. 6 log10 steps
same,Log10 TCID50/ml HIV-1,"HIV-1; Sample A, MB 1 μM without light, 0 min",6.00 Log10 TCID50/ml
same,Log10 TCID50/ml HIV-1,"HIV-1; Sample A, MB 1 μM without light, 2 min",5.94 Log10 TCID50/ml
same,Log10 TCID50/ml HIV-1,"HIV-1; Sample A, MB 1 μM without light, 5 min",5.94 Log10 TCID50/ml
same,Log10 TCID50/ml HIV-1,"HIV-1; Sample A, MB 1 μM without light, 10 min",5.94 Log10 TCID50/ml
same,Log10 TCID50/ml HIV-1,"HIV-1; Sample A, MB 1 μM without light, 15 min",6.06 Log10 TCID50/ml
same,Log10 TCID50/ml HIV-1,"HIV-1; Sample A, MB 1 μM without light, 30 min",5.76 Log10 TCID50/ml
same,Log10 TCID50/ml HIV-1,"HIV-1; Sample A, MB 1 μM without light, 60 min",5.70 Log10 TCID50/ml
same,Log10 TCID50/ml HIV-1,"HIV-1; Sample C, MB 1 μM + light 45,000 Lux, exposure 0 min",5.82 Log10 TCID50/ml
same,Log10 TCID50/ml HIV-1,"HIV-1; Sample C, MB 1 μM + light 45,000 Lux, exposure 2 min",3.37 Log10 TCID50/ml
same,Log10 TCID50/ml HIV-1,"HIV-1; Sample C, MB 1 μM + light 45,000 Lux, exposure 5 min",1.5 Log10 TCID50/ml
same,Log10 TCID50/ml HIV-1,"HIV-1; Sample C, MB 1 μM + light 45,000 Lux, exposure 10 min",≦0.5 Log10 TCID50/ml
same,Log10 TCID50/ml HIV-1,"HIV-1; Sample C, MB 1 μM + light 45,000 Lux, exposure 15 min",≦0.5 Log10 TCID50/ml
same,Log10 TCID50/ml HIV-1,"HIV-1; Sample C, MB 1 μM + light 45,000 Lux, exposure 30 min",≦0.5 Log10 TCID50/ml
same,Log10 TCID50/ml HIV-1,"HIV-1; Sample C, MB 1 μM + light 45,000 Lux, exposure 60 min",≦0.5 Log10 TCID50/ml
same,Inactivation Rate,Hog Cholera,>5.92 * log10 TCID50
same,Inactivation Rate,SIV,>6.26 * log10 TCID50
same,Inactivation Rate,Herpes Simplex,>5.50 * log10 TCID50
same,Inactivation Rate,West Nile,>6.50 log10 TCID50
same,Factor VIII,coagulation factor VIII [1]; Methylene Blue 1 μM,0.41 E/ml
same,Factor VIII,coagulation factor VIII [1]; Methylene Blue 2.5 μM,0.41 E/ml
same,Factor VIII,coagulation factor VIII [1]; Methylene Blue 5 μM,0.38 E/ml
same,Factor VIII,coagulation factor VIII [1]; Methylene Blue 10 μM,0.35 E/ml
same,Factor VIII,coagulation factor VIII [1]; Methylene Blue 20 μM,0.28 E/ml
same,MB concentration from which factor VIII activity is inhibited,coagulation factor VIII [1],about 10 μM
same,Factor VIII,"coagulation factor VIII [2]; light exposure 0 h, MB 1 μM",0.45 E/ml
same,Factor VIII,"coagulation factor VIII [2]; light exposure 0 h, MB 2.5 μM",0.33 E/ml
same,Factor VIII,"coagulation factor VIII [2]; light exposure 0 h, MB 10 μM",0.30 E/ml
same,Factor VIII,"coagulation factor VIII [2]; light exposure 1 h, MB 1 μM",0.24 E/ml
same,Factor VIII,"coagulation factor VIII [2]; light exposure 1 h, MB 2.5 μM",0.24 E/ml
same,Factor VIII,"coagulation factor VIII [2]; light exposure 1 h, MB 10 μM",0.16 E/ml
same,Factor VIII,"coagulation factor VIII [2]; light exposure 2 h, MB 1 μM",0.23 E/ml
same,Factor VIII,"coagulation factor VIII [2]; light exposure 2 h, MB 2.5 μM",0.22 E/ml
same,Factor VIII,"coagulation factor VIII [2]; light exposure 2 h, MB 10 μM",0.15 E/ml
same,Factor VIII,"coagulation factor VIII [2]; light exposure 4 h, MB 1 μM",0.16 E/ml
same,Factor VIII,"coagulation factor VIII [2]; light exposure 4 h, MB 2.5 μM",0.29 E/ml
same,Factor VIII,"coagulation factor VIII [2]; light exposure 4 h, MB 10 μM",0.27 E/ml
same,Factor V,coagulation factor V; Methylene Blue 1 μM,0.76 E/ml
same,Factor V,coagulation factor V; Methylene Blue 2.5 μM,0.78 E/ml
same,Factor V,coagulation factor V; Methylene Blue 5 μM,0.74 E/ml
same,Factor V,coagulation factor V; Methylene Blue 10 μM,0.54 E/ml
same,Factor V,coagulation factor V; Methylene Blue 20 μM,0.44 E/ml
same,MB concentration from which factor V activity is inhibited,coagulation factor V,about 10 μM
same,Inactivation Rate,Sindbis,>9.73 log10 TCID50
